# Source: patent US6737383B1, “Herbicidal oxadiazolidines” (priority 1999, dated 2004)
# Legend:
# [1] = test system: bedstraw; assay: Test B pre/postemergence bedstraw; assay type: in vivo, Galium aparine; settings: Preemergence
# How it was run: (§1)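 Response is a visual 0-to-10 score relative to untreated plants, where 0 means no effect and 10 means complete control, taken twelve to sixteen days after application. Treatments went onto soil at planting and onto foliage of 1- to 4-leaf plants, using a surfactant-containing non-phytotoxic solvent.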
# [2] = test system: blackgrass; assay: Test B pre/postemergence blackgrass; assay type: in vivo, Alopecurus myosuroides
# How it was run: as §1
# [3] = test system: surinam grass; assay: Test B pre/postemergence surinam grass; assay type: in vivo, Brachiaria decumbens
# How it was run: as §1
# [4] = test system: cocklebur; assay: Test B pre/postemergence cocklebur; assay type: in vivo, Xanthium strumarium
# How it was run: as §1
# [5] = test system: corn; assay: Test B pre/postemergence corn; assay type: in vivo, Zea mays
# How it was run: as §1
# [6] = test system: crabgrass; assay: Test B pre/postemergence crabgrass; assay type: in vivo, Digitaria sanguinalis
# How it was run: as §1
# [7] = test system: giant foxtail; assay: Test B pre/postemergence giant foxtail; assay type: in vivo, Setaria faberii
# How it was run: as §1
# [8] = test system: morningglory; assay: Test B pre/postemergence morningglory; assay type: in vivo, Ipomoea hederacea
# How it was run: as §1
# [9] = test system: pigweed; assay: Test B pre/postemergence pigweed; assay type: in vivo, Amaranthus retroflexus; settings: for Plant response rating, Redroot pigweed: Postemergence
# How it was run: as §1
# [10] = test system: rape; assay: Test B pre/postemergence rape; assay type: in vivo, Brassica napus
# How it was run: as §1
# [11] = test system: soybean; assay: Test B pre/postemergence soybean; assay type: in vivo, Glycine max; settings: for Plant response rating, Soybean: Postemergence
# How it was run: as §1
# [12] = test system: sugar beet; assay: Test B pre/postemergence sugar beet; assay type: in vivo, Beta vulgaris; settings: for Plant response rating, Sugarbeets: Postemergence
# How it was run: as §1
# [13] = test system: velvetleaf; assay: Test B pre/postemergence velvetleaf; assay type: in vivo, Abutilon theophrasti; settings: for Plant response rating, Velvetleaf: Postemergence
# How it was run: as §1
# [14] = test system: wheat; assay: Test B pre/postemergence wheat; assay type: in vivo, Triticum aestivum; settings: for Plant response rating, Wheat: Postemergence
# How it was run: as §1
# [15] = test system: wild oat; assay: Test B pre/postemergence wild oat; assay type: in vivo, Avena fatua; settings: for Plant response rating, Wild oats: Postemergence
# How it was run: as §1
# [16] = test system: purple nutsedge; assay: Test B pre/postemergence purple nutsedge; assay type: in vivo, Cyperus rotundus
# How it was run: as §1
# [17] = Rate 500 g/ha, scale of 0 to 10 where 0 is no effect and 10 is complete control
# [18] = Postemergence, Rate 62 g/ha, scale of 0 to 10, 0 is no effect, 10 is complete control
# [19] = Postemergence, Rate 125 g/ha, scale 0 to 10, 0 is no effect, 10 is complete control
# [20] = Postemergence, Rate 500 g/ha, scale of 0 to 10 where 0 is no effect and 10 is complete control
# [21] = Preemergence, Rate 62 g/ha, scale 0 to 10 (0 no effect, 10 complete control)
# [22] = Preemergence, Rate 125 g/ha, scale 0 to 10, 0 is no effect, 10 is complete control
# [23] = Preemergence, Rate 500 g/ha, scale of 0 to 10 where 0 is no effect and 10 is complete control
# [24] = Rate 250 g/ha, Postemergence, scale of 0 to 10 where 0 is no effect and 10 is complete control
# [25] = Rate 250 g/ha, scale of 0 to 10 where 0 is no effect and 10 is complete control
smiles,measurement,setting,value
CCN(CC)C(=O)Cn1c(=O)on(C(=O)N(c2ccccc2)C(C)C)c1=O [Compound 571],Bedstraw plant response rating,"[1]; Rate 62 g/ha, scale 0 to 10 (0 no effect, 10 complete control)",0
same,Bedstraw plant response rating,"[1]; Rate 125 g/ha, scale 0 to 10, 0 is no effect, 10 is complete control",0
same,Bedstraw plant response rating (0 to 10 scale),[1]; Rate 250 g/ha,0
same,Bedstraw plant response rating,[1]; [17],0
same,Blackgrass plant response rating,[2]; [18],0
same,Blackgrass plant response rating,[2]; [19],0
same,"Plant response rating, Blackgrass",[2]; [20],0
same,Blackgrass plant response rating,[2]; [21],0
same,Blackgrass plant response rating,[2]; [22],2
same,Blackgrass plant response rating (0 to 10 scale),"[2]; Preemergence, Rate 250 g/ha",3
same,Blackgrass plant response rating,[2]; [23],9
same,"Plant response rating, Blackgrass",[2]; [24],0
same,B. signalgrass plant response rating,[3]; [18],0
same,B. signalgrass plant response rating,[3]; [19],0
same,"Plant response rating, B. signalgrass",[3]; [20],5
same,B. signalgrass plant response rating,[3]; [21],0
same,B. signalgrass plant response rating,[3]; [22],3
same,"B. signalgrass plant response rating (0 to 10 scale, 0 is no effect, 10 is complete control)","[3]; Preemergence, Rate 250 g/ha",3
same,B. signalgrass plant response rating,[3]; [23],9
same,"Plant response rating, B. signalgrass",[3]; [24],0
same,Cocklebur plant response rating,[4]; [18],0
same,Cocklebur plant response rating,[4]; [19],0
same,"Plant response rating, Cocklebur",[4]; [20],0
same,Cocklebur plant response rating,[4]; [21],0
same,Cocklebur plant response rating,[4]; [22],0
same,Cocklebur plant response rating (0 to 10 scale),"[4]; Preemergence, Rate 250 g/ha",0
same,Cocklebur plant response rating,[4]; [23],0
same,"Plant response rating, Cocklebur",[4]; [24],0
same,Corn plant response rating,[5]; [18],0
same,Corn plant response rating,[5]; [19],0
same,"Plant response rating, Corn",[5]; [20],0
same,Corn plant response rating,[5]; [21],0
same,Corn plant response rating,[5]; [22],0
same,Corn plant response rating (0 to 10 scale),"[5]; Preemergence, Rate 250 g/ha",0
same,Corn plant response rating,[5]; [23],0
same,"Plant response rating, Corn",[5]; [24],0
same,Crabgrass plant response rating,[6]; [18],0
same,Crabgrass plant response rating,[6]; [19],0
same,"Plant response rating, Crabgrass",[6]; [20],3
same,Crabgrass plant response rating,[6]; [21],2
same,Crabgrass plant response rating,[6]; [22],2
same,Crabgrass plant response rating (0 to 10 scale),"[6]; Preemergence, Rate 250 g/ha",3
same,Crabgrass plant response rating,[6]; [23],3
same,Giant foxtail plant response rating,[7]; [18],0
same,Giant foxtail plant response rating,[7]; [19],0
same,"Plant response rating, Giant foxtail",[7]; [20],3
same,Giant foxtail plant response rating,[7]; [21],3
same,Giant foxtail plant response rating,[7]; [22],3
same,Giant foxtail plant response rating (0 to 10 scale),"[7]; Preemergence, Rate 250 g/ha",9
same,Giant foxtail plant response rating,[7]; [23],9
same,"Plant response rating, Giant foxtail",[7]; [24],2
same,Morningglory plant response rating,[8]; [18],4
same,Morningglory plant response rating,[8]; [19],10
same,"Plant response rating, Morningglory",[8]; [20],10
same,Morningglory plant response rating,[8]; [21],0
same,Morningglory plant response rating,[8]; [22],0
same,Morningglory plant response rating (0 to 10 scale),"[8]; Preemergence, Rate 250 g/ha",2
same,Morningglory plant response rating,[8]; [23],4
same,"Plant response rating, Morningglory",[8]; [24],10
same,"Plant response rating, Redroot pigweed",[9]; [17],0
same,Redroot pigweed plant response rating,[9]; [21],0
same,Redroot pigweed plant response rating,[9]; [22],0
same,Redroot pigweed plant response rating (0 to 10 scale),"[9]; Preemergence, Rate 250 g/ha",9
same,Redroot pigweed plant response rating,[9]; [23],9
same,"Plant response rating, Redroot pigweed",[9]; [25],0
same,Rape plant response rating,[10]; [18],0
same,Rape plant response rating,[10]; [19],0
same,"Plant response rating, Rape",[10]; [20],0
same,Rape plant response rating,[10]; [21],0
same,Rape plant response rating,[10]; [22],0
same,Rape plant response rating (0 to 10 scale),"[10]; Preemergence, Rate 250 g/ha",0
same,Rape plant response rating,[10]; [23],2
same,"Plant response rating, Rape",[10]; [24],0
same,"Plant response rating, Soybean",[11]; [17],4
same,Soybean plant response rating,[11]; [21],0
same,Soybean plant response rating,[11]; [22],0
same,Soybean plant response rating (0 to 10 scale),"[11]; Preemergence, Rate 250 g/ha",0
same,Soybean plant response rating,[11]; [23],3
same,"Plant response rating, Soybean",[11]; [25],2
same,"Plant response rating, Sugarbeets",[12]; [17],0
same,Sugarbeets plant response rating,[12]; [21],0
same,Sugarbeets plant response rating,[12]; [22],0
same,Sugarbeets plant response rating (0 to 10 scale),"[12]; Preemergence, Rate 250 g/ha",0
same,Sugarbeets plant response rating,[12]; [23],0
same,"Plant response rating, Sugarbeets",[12]; [25],0
same,"Plant response rating, Velvetleaf",[13]; [17],0
same,Velvetleaf plant response rating,[13]; [21],0
same,Velvetleaf plant response rating,[13]; [22],0
same,Velvetleaf plant response rating (0 to 10 scale),"[13]; Preemergence, Rate 250 g/ha",0
same,Velvetleaf plant response rating,[13]; [23],0
same,"Plant response rating, Velvetleaf",[13]; [25],0
same,"Plant response rating, Wheat",[14]; [17],0
same,Wheat plant response rating,[14]; [21],0
same,Wheat plant response rating,[14]; [22],3
same,Wheat plant response rating (0 to 10 scale),"[14]; Preemergence, Rate 250 g/ha",3
same,Wheat plant response rating,[14]; [23],9
same,"Plant response rating, Wheat",[14]; [25],0
same,"Plant response rating, Wild oats",[15]; [17],0
same,Wild oats plant response rating,[15]; [21],0
same,Wild oats plant response rating,[15]; [22],0
same,Wild oats plant response rating (0 to 10 scale),"[15]; Preemergence, Rate 250 g/ha",3
same,Wild oats plant response rating,[15]; [23],7
same,"Plant response rating, Wild oats",[15]; [25],0
same,Nutsedge plant response rating,[16]; [18],0
same,Nutsedge plant response rating,[16]; [19],0
same,"Plant response rating, Nutsedge",[16]; [20],0
same,Nutsedge plant response rating,[16]; [21],0
same,Nutsedge plant response rating,[16]; [22],0
same,Nutsedge plant response rating (0 to 10 scale),"[16]; Preemergence, Rate 250 g/ha",0
same,Nutsedge plant response rating,[16]; [23],0
same,"Plant response rating, Nutsedge",[16]; [24],0
